Literature values as cited in patent publication US11707272B2, “Packaged antimicrobial medical device having improved shelf life and method of preparing same” (ETHICON, LLC, priority 2012, dated 2023).

System: S. aureus
Details: measured in a suitable growth medium; as described by Bhargava, H. et al, American Journal of Infection Control, June 1996

Oc1cc(Cl)ccc1Oc1ccc(Cl)cc1Cl [2,4,4′-trichloro-2′-hydroxydiphenyl ether]
minimum inhibitory concentration (MIC) against S. aureus: 0.01 ppm
